From PubChem BioAssay (NCI)
Where “and” joins values, the source holds several entries; their conditions need not be identical. Identical values can stand only once.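 Growth conditions: 96-well plates. Treatment: test compound, 48 hours, 5 concentrations. Analysis: linear interpolation between bracketing concentrations; unreached endpoints set to highest concentration. GI50 is the concentration that inhibits growth by half. TGI denotes the concentration required for complete inhibition of growth.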

Assays:
Experiment in all cases: NCI tumour cell line growth inhibition, 48 h
HOP-18 NSCLC = test system: HOP-18 NSCLC
LOX IMVI melanoma = test system: LOX IMVI melanoma
SW-620 colon = test system: SW-620 colon
KM12 colon = test system: KM12 colon
SK-OV-3 ovarian = test system: SK-OV-3 ovarian
UACC-257 melanoma = test system: UACC-257 melanoma
SN12C renal = test system: SN12C renal
SK-MEL-5 melanoma = test system: SK-MEL-5 melanoma
M14 melanoma = test system: M14 melanoma
OVCAR-3 ovarian = test system: OVCAR-3 ovarian
SNB-78 CNS = test system: SNB-78 CNS
NCI-H226 lung = test system: NCI-H226 lung
HOP-92 NSCLC = test system: HOP-92 NSCLC
KM20L2 colon = test system: KM20L2 colon
SF-268 CNS = test system: SF-268 CNS
LXFL 529 NSCLC = test system: LXFL 529 NSCLC
IGROV1 ovarian = test system: IGROV1 ovarian
SK-MEL-28 melanoma = test system: SK-MEL-28 melanoma
MALME-3M melanoma = test system: MALME-3M melanoma
NCI-H522 lung = test system: NCI-H522 lung
U251 CNS = test system: U251 CNS
CAKI-1 renal = test system: CAKI-1 renal
HCT-15 colon = test system: HCT-15 colon
HCT-116 colon = test system: HCT-116 colon
ACHN renal = test system: ACHN renal
SNB-75 CNS = test system: SNB-75 CNS
A498 renal = test system: A498 renal
OVCAR-5 ovarian = test system: OVCAR-5 ovarian
MOLT-4 leukemia = test system: MOLT-4 leukemia
K-562 leukemia = test system: K-562 leukemia
DMS 114 small cell lung = test system: DMS 114 small cell lung
DMS 273 small cell lung = test system: DMS 273 small cell lung
EKVX NSCLC = test system: EKVX NSCLC
OVCAR-8 ovarian = test system: OVCAR-8 ovarian
HL-60(TB) leukemia = test system: HL-60(TB) leukemia
SK-MEL-2 melanoma = test system: SK-MEL-2 melanoma
786-0 renal = test system: 786-0 renal
HCC-2998 colon = test system: HCC-2998 colon
TK-10 renal = test system: TK-10 renal
HOP-62 NSCLC = test system: HOP-62 NSCLC
A549 NSCLC = test system: A549 NSCLC
HT29 colon = test system: HT29 colon
COLO 205 colon = test system: COLO 205 colon
CCRF-CEM leukemia = test system: CCRF-CEM leukemia
SNB-19 CNS = test system: SNB-19 CNS
UACC-62 melanoma = test system: UACC-62 melanoma
XF 498 CNS = test system: XF 498 CNS
OVCAR-4 ovarian = test system: OVCAR-4 ovarian
UO-31 renal = test system: UO-31 renal
RXF-631 renal = test system: RXF-631 renal
SF-295 CNS = test system: SF-295 CNS
NCI-H23 lung = test system: NCI-H23 lung
M19-MEL melanoma = test system: M19-MEL melanoma
NCI-H460 lung = test system: NCI-H460 lung
DLD-1 colon = test system: DLD-1 colon
RPMI-8226 leukemia = test system: RPMI-8226 leukemia
HS 578T breast = test system: HS 578T breast
P388/ADR leukemia = test system: P388/ADR leukemia
P388 leukemia = test system: P388 leukemia
MDA-N = test system: MDA-N
MCF7 breast = test system: MCF7 breast
SN12K1 renal = test system: SN12K1 renal
SR leukemia = test system: SR leukemia
NCI/ADR-RES ovarian = test system: NCI/ADR-RES ovarian
MDA-MB-231 breast = test system: MDA-MB-231 breast
RXF 393 renal = test system: RXF 393 renal

SMILES: CCOC(=O)[C@@]1(C)C=C2O[C@@H]3OC4(CCCCC4)O[C@@H]3C2=C2C(O)=CC=C(O)[C@]21C(=O)OC
- TGI (HOP-18 NSCLC): > 68000 nM
- TGI (LOX IMVI melanoma): > 68000 nM
- TGI (SW-620 colon): > 68000 nM
- TGI (KM12 colon): > 68000 nM
- TGI (SK-OV-3 ovarian): > 68000 nM
- TGI (UACC-257 melanoma): > 68000 nM
- TGI (SN12C renal): > 68000 nM
- TGI (SK-MEL-5 melanoma): > 68000 nM
- TGI (M14 melanoma): > 68000 nM
- TGI (OVCAR-3 ovarian): > 68000 nM
- TGI (SNB-78 CNS): > 68000 nM
- TGI (NCI-H226 lung): > 68000 nM
- TGI (HOP-92 NSCLC): 33800 nM
- TGI (KM20L2 colon): > 68000 nM
- TGI (SF-268 CNS): > 68000 nM
- TGI (LXFL 529 NSCLC): > 68000 nM
- TGI (IGROV1 ovarian): > 68000 nM
- TGI (SK-MEL-28 melanoma): > 68000 nM
- TGI (MALME-3M melanoma): > 68000 nM
- TGI (NCI-H522 lung): > 68000 nM
- TGI (U251 CNS): > 68000 nM
- TGI (CAKI-1 renal): > 68000 nM
- TGI (HCT-15 colon): > 68000 nM
- TGI (HCT-116 colon): > 68000 nM
- TGI (ACHN renal): > 68000 nM
- TGI (SNB-75 CNS): > 68000 nM
- TGI (A498 renal): > 68000 nM
- TGI (OVCAR-5 ovarian): > 68000 nM
- TGI (MOLT-4 leukemia): > 68000 nM
- TGI (K-562 leukemia): > 68000 nM
- TGI (DMS 114 small cell lung): > 68000 nM
- TGI (DMS 273 small cell lung): > 68000 nM
- TGI (EKVX NSCLC): > 68000 nM
- TGI (OVCAR-8 ovarian): > 68000 nM
- TGI (HL-60(TB) leukemia): > 68000 nM
- TGI (SK-MEL-2 melanoma): > 68000 nM
- TGI (786-0 renal): > 68000 nM
- TGI (HCC-2998 colon): > 68000 nM
- TGI (TK-10 renal): > 68000 nM
- TGI (HOP-62 NSCLC): > 68000 nM
- TGI (A549 NSCLC): > 68000 nM
- TGI (HT29 colon): > 68000 nM
- TGI (COLO 205 colon): > 68000 nM
- TGI (CCRF-CEM leukemia): > 68000 nM
- TGI (SNB-19 CNS): > 68000 nM
- TGI (UACC-62 melanoma): > 68000 nM
- TGI (XF 498 CNS): > 68000 nM
- TGI (OVCAR-4 ovarian): > 68000 nM
- TGI (UO-31 renal): > 68000 nM
- TGI (RXF-631 renal): > 68000 nM
- TGI (SF-295 CNS): > 68000 nM
- TGI (NCI-H23 lung): > 68000 nM
- TGI (M19-MEL melanoma): > 68000 nM
- TGI (NCI-H460 lung): > 68000 nM
- TGI (DLD-1 colon): > 68000 nM
- TGI (RPMI-8226 leukemia): > 68000 nM

SMILES: N#Cc1cn(C2OC(CO)C(O)C2O)c2ncnc(N)c12 (centres undefined)
- TGI (HS 578T breast): 1330 nM
- GI50 (HOP-18 NSCLC): 55.7 nM
- GI50 (LOX IMVI melanoma): < 10 nM
- GI50 (SW-620 colon): < 14.5 nM
- TGI (SW-620 colon): > 100000 nM
- TGI (KM12 colon): > 100000 nM
- GI50 (SK-OV-3 ovarian): 108 nM
- GI50 (P388/ADR leukemia): 12.7 nM and 45 nM
- GI50 (SN12C renal): < 11.9 nM
- GI50 (SK-MEL-5 melanoma): 41.6 nM
- TGI (SK-MEL-5 melanoma): 109 nM
- TGI (M14 melanoma): 21900 nM
- GI50 (P388 leukemia): 5.28 nM and 45 nM
- TGI (P388 leukemia): 137 nM and 46.3 nM
- GI50 (SNB-78 CNS): 73.6 nM
- TGI (SNB-78 CNS): > 450000 nM
- GI50 (HOP-92 NSCLC): 0.461 nM
- TGI (HOP-92 NSCLC): 665 nM and 182 nM
- GI50 (MDA-N): 28.1 nM
- GI50 (KM20L2 colon): 4.5 nM
- TGI (KM20L2 colon): 3420 nM and 12000 nM
- GI50 (SF-268 CNS): < 10 nM
- GI50 (IGROV1 ovarian): 26.6 nM
- GI50 (SK-MEL-28 melanoma): 32.9 nM
- GI50 (NCI-H522 lung): 29.3 nM
- GI50 (MCF7 breast): 25.1 nM and 45 nM and < 16.9 nM
- GI50 (U251 CNS): 27.6 nM
- GI50 (CAKI-1 renal): 70.5 nM and 45 nM and < 10 nM
- GI50 (HCT-15 colon): < 11.7 nM
- GI50 (HCT-116 colon): 26.4 nM and < 10 nM
- TGI (HCT-116 colon): > 100000 nM
- GI50 (ACHN renal): < 10 nM
- TGI (ACHN renal): 20 nM
- GI50 (SNB-75 CNS): 232 nM
- GI50 (A498 renal): 45 nM
- TGI (A498 renal): 1510 nM and 634 nM
- GI50 (OVCAR-5 ovarian): 238 nM
- GI50 (MOLT-4 leukemia): 45 nM and 31.9 nM
- GI50 (K-562 leukemia): 17.5 nM
- TGI (DMS 273 small cell lung): 390 nM and 70 nM
- GI50 (OVCAR-8 ovarian): 46.9 nM and 45 nM
- TGI (OVCAR-8 ovarian): 889 nM and 178 nM
- GI50 (HL-60(TB) leukemia): 45 nM
- TGI (SN12K1 renal): 3130 nM
- TGI (786-0 renal): > 100000 nM
- GI50 (HCC-2998 colon): 60.9 nM and 75.8 nM and < 24.9 nM
- GI50 (TK-10 renal): 0.405 nM
- TGI (TK-10 renal): 77.1 nM
- GI50 (HOP-62 NSCLC): 53.3 nM
- GI50 (A549 NSCLC): < 10 nM
- TGI (A549 NSCLC): > 450000 nM
- GI50 (HT29 colon): < 10 nM
- GI50 (CCRF-CEM leukemia): 45 nM
- TGI (CCRF-CEM leukemia): 216 nM and 840 nM and 96.1 nM
- GI50 (UACC-62 melanoma): < 13.6 nM
- TGI (UACC-62 melanoma): 156 nM and 60.3 nM and 115 nM
- GI50 (XF 498 CNS): 45 nM
- TGI (XF 498 CNS): 13 nM and 66.3 nM
- GI50 (OVCAR-4 ovarian): 28.2 nM and 11.7 nM
- GI50 (UO-31 renal): 65.8 nM and 45.9 nM and 27.1 nM
- TGI (UO-31 renal): 665 nM and 819 nM and 1980 nM
- TGI (SR leukemia): > 100000 nM
- GI50 (NCI/ADR-RES ovarian): 45.9 nM
- TGI (MDA-MB-231 breast): > 100000 nM
- GI50 (SF-295 CNS): < 19.3 nM
- GI50 (RXF 393 renal): 16.1 nM
- TGI (RXF 393 renal): 95.8 nM and 70.8 nM
- GI50 (NCI-H23 lung): 25.6 nM
- TGI (M19-MEL melanoma): 1560 nM and 7690 nM
- GI50 (NCI-H460 lung): < 14.1 nM
- GI50 (DLD-1 colon): 27.7 nM
- TGI (DLD-1 colon): > 272000 nM
- GI50 (RPMI-8226 leukemia): 30.3 nM and 45 nM and < 10 nM
